Assay results: paper PMC8213057, “Targeting ALK2: An Open Science Approach to Developing Therapeutics for the Treatment of Diffuse Intrinsic Pontine Glioma” (Journal of Medicinal Chemistry, 2020)

Columns and labels:
MNK1 = MNK1 (Homo sapiens, UniProt Q9BUB5); test: biochemical; conditions: read-out: % enzyme activity, 1 μM; Run 1, Run 2
HIPK2 = HIPK2 (Homo sapiens, UniProt Q9H2X6); conditions: 1 μM; Run 1, Run 2
DCAMKL2 = molecular target: T1, DCAMKL2 (Homo sapiens, UniProt Q8N568); conditions: 1 μM; Run 1, Run 2
T1 sequence (Q8N568 1-766): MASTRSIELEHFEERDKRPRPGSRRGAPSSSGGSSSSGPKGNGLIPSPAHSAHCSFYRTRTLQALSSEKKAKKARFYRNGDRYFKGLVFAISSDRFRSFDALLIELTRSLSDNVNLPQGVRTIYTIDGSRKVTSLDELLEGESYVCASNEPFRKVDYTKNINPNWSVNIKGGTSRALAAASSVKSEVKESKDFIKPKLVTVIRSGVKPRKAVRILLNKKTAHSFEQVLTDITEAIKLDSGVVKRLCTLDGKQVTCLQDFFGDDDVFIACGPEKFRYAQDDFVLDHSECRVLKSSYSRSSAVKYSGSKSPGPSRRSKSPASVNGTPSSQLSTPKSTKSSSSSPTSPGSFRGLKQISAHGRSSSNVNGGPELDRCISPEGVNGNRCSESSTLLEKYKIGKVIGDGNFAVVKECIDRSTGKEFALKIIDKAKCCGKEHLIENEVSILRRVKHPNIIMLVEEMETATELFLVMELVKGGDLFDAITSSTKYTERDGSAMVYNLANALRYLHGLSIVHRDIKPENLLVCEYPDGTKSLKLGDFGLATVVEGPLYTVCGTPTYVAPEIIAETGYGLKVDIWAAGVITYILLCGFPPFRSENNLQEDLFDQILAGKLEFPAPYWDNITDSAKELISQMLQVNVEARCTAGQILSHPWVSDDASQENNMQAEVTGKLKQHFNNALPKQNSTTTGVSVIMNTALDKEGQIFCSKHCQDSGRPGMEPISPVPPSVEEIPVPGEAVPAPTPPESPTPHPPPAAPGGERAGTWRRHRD

ERN1/IRE1 = ERN1/IRE1 (Homo sapiens, UniProt O75460); test: biochemical; conditions: read-out: % enzyme activity, 1 μM; Run 1, Run 2
ERN1/IRE1, sequence (O75460 19-977): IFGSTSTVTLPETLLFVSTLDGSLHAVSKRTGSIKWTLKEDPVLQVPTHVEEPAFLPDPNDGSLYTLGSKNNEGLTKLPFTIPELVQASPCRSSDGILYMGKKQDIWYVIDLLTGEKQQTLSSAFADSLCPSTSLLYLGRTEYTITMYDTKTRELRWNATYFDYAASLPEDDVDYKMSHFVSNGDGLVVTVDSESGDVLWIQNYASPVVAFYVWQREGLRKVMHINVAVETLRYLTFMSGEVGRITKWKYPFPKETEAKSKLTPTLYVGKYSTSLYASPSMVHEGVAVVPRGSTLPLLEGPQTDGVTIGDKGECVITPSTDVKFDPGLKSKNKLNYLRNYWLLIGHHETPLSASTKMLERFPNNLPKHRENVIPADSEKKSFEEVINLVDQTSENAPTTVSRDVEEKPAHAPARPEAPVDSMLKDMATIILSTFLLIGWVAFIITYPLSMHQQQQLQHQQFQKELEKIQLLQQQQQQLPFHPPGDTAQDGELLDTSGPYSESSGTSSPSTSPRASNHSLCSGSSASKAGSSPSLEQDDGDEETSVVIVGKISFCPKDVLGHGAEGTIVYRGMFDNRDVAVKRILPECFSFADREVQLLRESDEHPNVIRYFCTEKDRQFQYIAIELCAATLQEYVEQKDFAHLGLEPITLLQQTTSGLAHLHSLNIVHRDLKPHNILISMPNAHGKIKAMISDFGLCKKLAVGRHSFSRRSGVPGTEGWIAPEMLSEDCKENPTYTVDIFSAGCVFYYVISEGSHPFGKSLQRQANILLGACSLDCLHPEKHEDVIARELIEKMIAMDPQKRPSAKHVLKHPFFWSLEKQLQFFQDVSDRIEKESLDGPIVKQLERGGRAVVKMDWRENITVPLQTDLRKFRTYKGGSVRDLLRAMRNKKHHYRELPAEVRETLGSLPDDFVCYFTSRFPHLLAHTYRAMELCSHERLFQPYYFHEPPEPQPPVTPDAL

STK33 = STK33 (Homo sapiens, UniProt Q9BYT3); test: biochemical; conditions: read-out: % enzyme activity, 1 μM; Run 1, Run 2
STK33, sequence (Q9BYT3 whole entry): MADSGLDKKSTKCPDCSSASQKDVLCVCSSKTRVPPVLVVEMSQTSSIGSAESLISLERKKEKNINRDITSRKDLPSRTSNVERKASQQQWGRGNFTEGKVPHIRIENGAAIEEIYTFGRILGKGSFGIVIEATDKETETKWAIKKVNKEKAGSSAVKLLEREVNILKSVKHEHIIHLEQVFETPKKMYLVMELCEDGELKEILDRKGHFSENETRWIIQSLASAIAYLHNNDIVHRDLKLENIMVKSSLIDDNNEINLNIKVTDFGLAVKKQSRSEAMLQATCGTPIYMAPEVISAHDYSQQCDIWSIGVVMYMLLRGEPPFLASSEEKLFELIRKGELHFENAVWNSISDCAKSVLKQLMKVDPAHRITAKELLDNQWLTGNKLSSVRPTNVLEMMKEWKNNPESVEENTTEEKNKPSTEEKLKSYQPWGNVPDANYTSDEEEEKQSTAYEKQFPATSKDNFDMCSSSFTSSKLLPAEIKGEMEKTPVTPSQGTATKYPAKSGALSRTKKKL

ARAF = molecular target: T2, ARAF (Homo sapiens, UniProt P10398); conditions: 1 μM; Run 1, Run 2
T2 sequence (P10398 1-606): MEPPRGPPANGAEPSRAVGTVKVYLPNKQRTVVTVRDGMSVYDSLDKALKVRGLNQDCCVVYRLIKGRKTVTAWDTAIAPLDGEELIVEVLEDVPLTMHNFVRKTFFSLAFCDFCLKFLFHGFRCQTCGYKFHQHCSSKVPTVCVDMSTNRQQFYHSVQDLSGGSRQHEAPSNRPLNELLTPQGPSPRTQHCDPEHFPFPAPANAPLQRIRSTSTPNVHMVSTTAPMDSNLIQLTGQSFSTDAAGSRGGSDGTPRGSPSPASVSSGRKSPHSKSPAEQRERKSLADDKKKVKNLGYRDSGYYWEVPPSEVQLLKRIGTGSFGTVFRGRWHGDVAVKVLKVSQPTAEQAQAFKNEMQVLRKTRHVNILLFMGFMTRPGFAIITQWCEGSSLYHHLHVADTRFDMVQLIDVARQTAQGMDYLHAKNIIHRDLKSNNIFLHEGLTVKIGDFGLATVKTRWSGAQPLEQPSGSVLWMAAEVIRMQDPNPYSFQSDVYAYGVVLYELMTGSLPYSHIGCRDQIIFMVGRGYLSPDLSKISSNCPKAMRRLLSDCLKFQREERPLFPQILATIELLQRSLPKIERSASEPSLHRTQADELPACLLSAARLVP

PKCd = PKCd (Homo sapiens, UniProt Q05655); conditions: 1 μM; Run 1, Run 2
PKCd, sequence (Q05655 whole entry): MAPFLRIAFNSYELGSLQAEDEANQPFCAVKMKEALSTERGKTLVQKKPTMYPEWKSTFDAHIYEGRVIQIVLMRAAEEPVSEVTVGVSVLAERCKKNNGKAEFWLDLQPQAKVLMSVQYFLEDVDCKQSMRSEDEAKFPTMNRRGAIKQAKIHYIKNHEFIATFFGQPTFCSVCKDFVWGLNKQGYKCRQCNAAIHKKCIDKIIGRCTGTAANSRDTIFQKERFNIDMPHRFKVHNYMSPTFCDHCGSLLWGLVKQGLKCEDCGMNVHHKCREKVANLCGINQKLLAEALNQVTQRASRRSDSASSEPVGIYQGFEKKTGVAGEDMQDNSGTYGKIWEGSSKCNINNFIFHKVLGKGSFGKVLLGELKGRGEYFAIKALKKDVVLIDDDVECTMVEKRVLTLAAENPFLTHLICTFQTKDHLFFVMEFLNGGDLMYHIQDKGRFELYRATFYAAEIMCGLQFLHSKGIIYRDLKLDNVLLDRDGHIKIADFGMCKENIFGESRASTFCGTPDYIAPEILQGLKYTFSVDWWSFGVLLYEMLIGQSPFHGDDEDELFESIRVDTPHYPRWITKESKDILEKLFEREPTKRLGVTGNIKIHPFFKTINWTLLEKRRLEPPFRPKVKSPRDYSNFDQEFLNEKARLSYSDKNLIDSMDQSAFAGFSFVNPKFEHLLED

TTBK2 = TTBK2 (Homo sapiens, UniProt Q6IQ55); test: biochemical; conditions: read-out: % enzyme activity, 1 μM; Run 1, Run 2
TTBK2, sequence (Q6IQ55 whole entry): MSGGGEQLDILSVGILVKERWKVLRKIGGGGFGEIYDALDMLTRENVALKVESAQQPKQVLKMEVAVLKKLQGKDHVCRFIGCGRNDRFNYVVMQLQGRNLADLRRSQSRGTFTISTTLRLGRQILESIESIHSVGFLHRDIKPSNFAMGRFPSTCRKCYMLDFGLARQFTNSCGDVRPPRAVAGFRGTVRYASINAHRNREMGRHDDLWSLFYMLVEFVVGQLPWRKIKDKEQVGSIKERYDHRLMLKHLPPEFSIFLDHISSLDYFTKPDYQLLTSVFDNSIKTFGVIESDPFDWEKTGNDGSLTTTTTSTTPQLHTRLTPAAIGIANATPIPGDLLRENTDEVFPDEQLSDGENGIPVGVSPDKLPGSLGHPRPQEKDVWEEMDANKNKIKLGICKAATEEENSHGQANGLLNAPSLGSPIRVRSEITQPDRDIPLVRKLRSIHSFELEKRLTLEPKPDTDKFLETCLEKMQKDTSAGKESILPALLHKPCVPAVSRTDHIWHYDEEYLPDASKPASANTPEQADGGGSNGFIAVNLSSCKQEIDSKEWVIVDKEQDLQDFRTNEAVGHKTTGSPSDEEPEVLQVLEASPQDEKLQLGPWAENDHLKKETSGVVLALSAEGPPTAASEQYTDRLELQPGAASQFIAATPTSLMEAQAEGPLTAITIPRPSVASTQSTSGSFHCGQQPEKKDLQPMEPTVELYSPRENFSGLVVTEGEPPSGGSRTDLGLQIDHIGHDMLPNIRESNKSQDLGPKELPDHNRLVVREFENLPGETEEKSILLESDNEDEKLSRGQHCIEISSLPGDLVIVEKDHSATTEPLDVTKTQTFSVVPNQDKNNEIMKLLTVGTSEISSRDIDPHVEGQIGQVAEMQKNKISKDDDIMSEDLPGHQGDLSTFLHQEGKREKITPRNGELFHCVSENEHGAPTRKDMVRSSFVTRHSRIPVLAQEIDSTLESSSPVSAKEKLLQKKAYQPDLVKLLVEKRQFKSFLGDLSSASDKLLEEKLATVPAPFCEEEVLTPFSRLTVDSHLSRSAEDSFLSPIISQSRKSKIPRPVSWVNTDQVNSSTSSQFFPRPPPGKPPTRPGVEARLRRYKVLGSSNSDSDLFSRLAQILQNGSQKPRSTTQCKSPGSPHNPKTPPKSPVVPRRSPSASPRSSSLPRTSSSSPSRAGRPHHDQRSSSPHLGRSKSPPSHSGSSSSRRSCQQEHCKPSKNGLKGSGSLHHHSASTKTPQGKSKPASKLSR

KSR2 = molecular target: T3, KSR2 (Homo sapiens, UniProt Q6VAB6); conditions: 1 μM; Run 1, Run 2
T3 sequence (Q6VAB6 1-950): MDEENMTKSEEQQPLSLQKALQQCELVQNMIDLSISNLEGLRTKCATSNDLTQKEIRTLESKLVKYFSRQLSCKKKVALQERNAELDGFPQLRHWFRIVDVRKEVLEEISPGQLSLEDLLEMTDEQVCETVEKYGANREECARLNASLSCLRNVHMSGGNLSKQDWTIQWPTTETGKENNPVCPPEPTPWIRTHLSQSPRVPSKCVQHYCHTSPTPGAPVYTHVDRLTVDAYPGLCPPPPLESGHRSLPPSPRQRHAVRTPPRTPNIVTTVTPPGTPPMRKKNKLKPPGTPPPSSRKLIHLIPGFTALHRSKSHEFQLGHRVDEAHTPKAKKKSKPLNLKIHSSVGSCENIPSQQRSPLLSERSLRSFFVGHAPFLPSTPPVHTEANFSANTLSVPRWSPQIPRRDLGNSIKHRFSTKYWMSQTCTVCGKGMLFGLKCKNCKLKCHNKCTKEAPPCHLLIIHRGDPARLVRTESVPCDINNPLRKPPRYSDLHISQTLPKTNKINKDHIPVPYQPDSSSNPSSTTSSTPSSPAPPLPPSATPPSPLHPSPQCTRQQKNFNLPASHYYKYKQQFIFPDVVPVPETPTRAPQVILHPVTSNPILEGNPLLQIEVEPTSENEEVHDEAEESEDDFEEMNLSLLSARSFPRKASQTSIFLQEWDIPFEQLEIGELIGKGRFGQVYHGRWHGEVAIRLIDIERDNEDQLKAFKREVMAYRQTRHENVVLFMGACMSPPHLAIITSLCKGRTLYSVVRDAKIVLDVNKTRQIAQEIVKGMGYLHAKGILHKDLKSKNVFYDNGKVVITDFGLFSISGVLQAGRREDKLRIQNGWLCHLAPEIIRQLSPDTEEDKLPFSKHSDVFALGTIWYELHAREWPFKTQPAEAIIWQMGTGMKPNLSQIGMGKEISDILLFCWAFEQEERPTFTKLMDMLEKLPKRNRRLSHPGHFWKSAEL

HIPK2, sequence (Q9H2X6 whole entry): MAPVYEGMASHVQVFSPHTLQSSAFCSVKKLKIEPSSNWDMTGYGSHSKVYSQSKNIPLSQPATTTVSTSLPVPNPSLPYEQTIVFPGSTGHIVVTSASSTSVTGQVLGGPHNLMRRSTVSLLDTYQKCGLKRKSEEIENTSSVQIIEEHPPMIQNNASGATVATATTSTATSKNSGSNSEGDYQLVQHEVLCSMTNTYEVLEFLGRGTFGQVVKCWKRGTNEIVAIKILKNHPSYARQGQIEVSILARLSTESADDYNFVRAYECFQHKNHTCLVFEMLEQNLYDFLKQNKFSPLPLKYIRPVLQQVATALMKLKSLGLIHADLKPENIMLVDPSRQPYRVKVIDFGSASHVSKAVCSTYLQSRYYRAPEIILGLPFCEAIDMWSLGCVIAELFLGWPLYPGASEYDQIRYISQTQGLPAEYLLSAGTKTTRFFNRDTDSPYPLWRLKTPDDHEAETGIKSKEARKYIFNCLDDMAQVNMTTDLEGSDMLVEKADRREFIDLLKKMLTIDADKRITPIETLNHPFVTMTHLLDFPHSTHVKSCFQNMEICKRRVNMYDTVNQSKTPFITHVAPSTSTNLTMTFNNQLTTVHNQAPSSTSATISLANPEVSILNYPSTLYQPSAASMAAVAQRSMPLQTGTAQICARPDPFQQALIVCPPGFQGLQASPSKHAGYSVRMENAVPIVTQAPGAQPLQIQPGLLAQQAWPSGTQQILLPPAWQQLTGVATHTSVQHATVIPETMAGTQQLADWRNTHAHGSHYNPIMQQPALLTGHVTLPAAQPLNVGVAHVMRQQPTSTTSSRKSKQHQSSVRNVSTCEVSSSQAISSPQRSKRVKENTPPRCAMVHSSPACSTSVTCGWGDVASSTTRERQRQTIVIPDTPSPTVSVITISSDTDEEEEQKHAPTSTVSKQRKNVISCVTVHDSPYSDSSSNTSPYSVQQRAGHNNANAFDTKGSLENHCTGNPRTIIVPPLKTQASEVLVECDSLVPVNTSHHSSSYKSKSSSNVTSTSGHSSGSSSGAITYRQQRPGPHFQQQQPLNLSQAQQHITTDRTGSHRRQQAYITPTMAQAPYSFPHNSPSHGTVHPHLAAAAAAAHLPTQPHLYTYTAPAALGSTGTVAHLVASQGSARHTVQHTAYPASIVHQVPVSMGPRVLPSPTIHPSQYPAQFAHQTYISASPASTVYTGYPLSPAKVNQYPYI
MNK1, sequence (Q9BUB5 whole entry): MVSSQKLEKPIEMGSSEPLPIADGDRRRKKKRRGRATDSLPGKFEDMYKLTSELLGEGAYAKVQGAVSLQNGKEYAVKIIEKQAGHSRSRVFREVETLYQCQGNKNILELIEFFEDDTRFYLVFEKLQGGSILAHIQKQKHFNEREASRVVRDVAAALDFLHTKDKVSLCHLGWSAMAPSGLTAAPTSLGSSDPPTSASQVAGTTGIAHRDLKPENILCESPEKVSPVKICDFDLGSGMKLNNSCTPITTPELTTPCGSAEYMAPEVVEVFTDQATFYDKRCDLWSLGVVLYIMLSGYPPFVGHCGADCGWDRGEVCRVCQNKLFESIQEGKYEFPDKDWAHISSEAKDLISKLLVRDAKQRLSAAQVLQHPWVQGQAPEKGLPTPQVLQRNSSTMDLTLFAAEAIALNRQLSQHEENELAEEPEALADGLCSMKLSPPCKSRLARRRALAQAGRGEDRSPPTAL

SMILES: COc1cc(-c2cncc(-c3ccc(N4CCN(C)CC4)cc3)c2C)cc(F)c1C(N)=O [Compound 26a, 2-Fluoro-6-methoxy-4-(4-methyl-5-(4-(4-methylpiperazin-1-yl)phenyl)pyridin-3-yl)benzamide]
- remaining activity at 1 µM (MNK1): 51.1%
- % enzyme activity (HIPK2): 97.88%
- % enzyme activity (DCAMKL2): 62.07%
- remaining activity at 1 µM (ERN1/IRE1): 92.8%
- remaining activity at 1 µM (STK33): 91%
- % enzyme activity (ARAF): 28.83%
- % enzyme activity (PKCd): 97.72%
- remaining activity at 1 µM (TTBK2): 97.1%
- % enzyme activity (KSR2): 93.25%

SMILES: COc1cc(-c2cncc(-c3ccc(N4C[C@@H](C)N(C)[C@@H](C)C4)cc3)c2C)cc(F)c1C(N)=O [Compound 26c, 2-Fluoro-6-methoxy-4-(4-methyl-5-(4-((3R,5S)-3,4,5-trimethylpiperazin-1-yl)phenyl)pyridin-3-yl)benzamide]
- remaining activity at 1 µM (MNK1): 71.4%
- % enzyme activity (HIPK2): 101.85%
- % enzyme activity (DCAMKL2): 82.24%
- remaining activity at 1 µM (ERN1/IRE1): 91%
- remaining activity at 1 µM (STK33): 97.4%
- % enzyme activity (ARAF): 43.32%
- % enzyme activity (PKCd): 100.12%
- remaining activity at 1 µM (TTBK2): 97.8%
- % enzyme activity (KSR2): 97.71%
